pIC50: −log10 of the molar value. Like-named read-outs stand apart in the source and are kept apart here.
Assays:
BVDV (strain NADL) = assay: Cell culture assay for inhibition of BVDV replication (cytopathic effect, crystal violet); assay type: cell-based, bovine viral diarrhea virus
Excerpt: The replication of many viruses may be quantitatively assessed in the laboratory in various cell or tissue culture systems. Such in vitro culture methodologies are available and useable by those trained in the art for the propagation and quantitative measurement of the replication of several pestiviruses and flaviviruses. The following procedure was used for the in vitro quantitative measure of BVDV replication.
Using the procedure described in this example, compounds of the invention were evaluated for their ability to inhibit the replication of the virus in cell culture. By adding compounds at various concentrations to the culture medium, a dose response effect of the compound on virus replication can be determined. A useful quantitative measure of the inhibition of BVDV replication in this assay is the concentration of the compound at which virus replication in cell culture is inhibited by 50% in comparison to that observed in the absence of the compound (50% Inhibitory Concentration, IC50).
Anti-pestivirus compounds of the invention were screened for antiviral activity against BVDV on Madin Darby bovine kidney (MDBK) cells in a cell culture assay. Standard 96-well culture plates were seeded with 1 to 2×10^4 MDBK cells in 200 uL of Dulbeccos-modified Eagle's medium (DMEM) supplemented with 5% horse serum so as to obtain a monolayer of cells at 60% confluence. Six hours later, the medium was removed and the cell monolayers in each well were infected with 150 uL solution of BVDV (strain NADL) (M. S. Collett et al., Virology 165:191-199 (1988)) in DMEM supplemented with 2% horse serum previously titrated to yield 85-100% destruction (cytopathic effect) of the cell monolayer 36-40 hours after infection.
To determine the IC50 values of compounds tested in this experiment, ten serial 2-fold dilutions of test compounds were prepared in DMSO solvent at a compound concentration 200 times that desired for the highest final test concentration. The test compound-DMSO solutions were diluted 50-fold into DMEM containing 2% horse serum. Fifty uL of this dilution was added to the 150 uL volume present in the wells of the virus-infected plate, yielding a final DMSO concentration in each well of 0.5%. Virus control (VC; no test compound) and cell culture control (CC; no virus and no test compound) wells were included on each 96-well plate. Assay points were conducted in replicate, usually in quadruplicate. Plates were then incubated at 37° C. in a humidified atmosphere containing 2.5% carbon dioxide for 36-40 hours. At the end of the incubation period, 100 uL of a 5% solution of glutaraldehyde in water was added to each well and the wells were incubated at room temperature for 1 hour. The fixative was removed, and the cells were stained with a 0.1% solution of crystal violet in water for 15-30 minutes. After rinsing and drying the plates, the optical density of the wells was measured at 570 nm (OD570).
To determine IC50 values for the test compounds, the mean value of the OD570 readings of the virus control wells (VC) on a plate was subtracted from the OD570 readings of all wells on that plate. The IC50 values were then calculated according to the following formula: [formula]
where Y represents the mean OD570 reading of the cell control wells (CC) divided by 2; B represents the mean OD570 reading of wells of the compound dilution nearest to and below Y; A represents the mean OD570 reading of wells of the compound dilution nearest to and above Y; L represents the compound concentration at B; and H represents the compound concentration at A.

BVDV-infected MDBK cells = assay type: cell-based, bovine viral diarrhea virus; conditions: read-out: IC50 evaluated with the spiked mouse reference serum
[1] = system: Respiratory syncytial virus; assay: microbe, parasite or virus in culture; assay type: cell-based; conditions: read-out: IC50 Respiratory syncytial virus
[2] = mouse, in vivo, po
normal cells = conditions: highest concentration giving optical density ≧75% of control, MTT, 68 hours
Protocol: This assay measures cell viability, and therefore cytotoxicity, by quantitatively detecting the in situ reduction of 3-(4,5-dimethylthiazol-2-yl)-2,5-diphenyltetrazolium bromide (MTT) by viable cells. Cells are seeded in 96-well plates in DMEM containing 2% horse serum at a density of 4×10^3 cells per well. After incubation for 4 hours at 37° C. and 5% CO2, 2-fold serial dilutions of compound in 1% DMSO (or solvent alone) are added to quadruplicate wells and the plates are incubated for an additional 68 hours at 37° C. and 5% CO2, which is equivalent to 3 to 4 cell doublings. The culture medium is removed, and the cells are treated with 1 mg/ml of MTT in phosphate-buffered saline, pH 7.2 for 4 hours at 37° C. and 5% CO2. After removal of the unreduced MTT, the reduced blue formazan crystals produced by the viable cells are solubilized by the addition of 0.04N HCl in isopropanol. The absorbance at 570 nm (A570) of each well is read using a suitable microplate reader. Cell viability is expressed as the percentage of optical density for compound-treated cells relative to the optical density of solvent alone-treated control wells. The highest compound concentration resulting in an optical density of ≧75% of the control is represented as the cellular cytotoxicity value (CC75).

[3] = system: Herpes simplex virus type 2; assay: microbe, parasite or virus in culture; assay type: cell-based
Influenza A virus = assay: microbe, parasite or virus in culture; assay type: cell-based; conditions: read-out: IC50 Influenza A virus
[4] = system: female Swiss Webster mice; assay: Animal safety study: maximum tolerated dose after single oral dose; conditions: mice; for MTD: single oral dose, survival over 7 days
Protocol: (§1) Doses above this level are overtly toxic or fatal to the animal.
(§2) To assess the safety of compounds of the invention, the methyl cellulose formulations of compounds of the invention were administered to laboratory mice. A single dose of each compound in a 0.5 mL volume was administered by oral gavage to groups of test animals, each consisting of five female Swiss Webster mice 8 to 9 weeks of age and weighing 25 to 30 g. The MTD was determined by administering increasing doses of compound and assessing animal survival over a 7 day period.

[5] = system: female Swiss Webster mice; conditions: mouse, in vivo, po
Protocol: as §1, §2

Coxsackie B3 virus = assay: microbe, parasite or virus in culture; assay type: cell-based
[6] = Animal safety study: maximum tolerated dose after single oral dose; conditions: female, Swiss Webster, mouse, in vivo, po
Protocol: as §1, §2

[7] = Bovine viral diarrhea virus isolates and strains, BVDV strain NADL on MDBK cells, 36-40 hours, read-out: IC50
[8] = single oral gavage dose 21 mg/kg
[9] = single oral gavage dose 71 mg/kg
[10] = single oral gavage dose 214 mg/kg
[11] = single oral gavage dose 710 mg/kg
[12] = Bovine viral diarrhea virus isolates and strains, BVDV, read-out: IC50 determined in cell culture
[13] = Bovine viral diarrhea virus isolates and strains, Table 3 specificity panel, BVDV, read-out: IC50 BVDV
[14] = Bovine viral diarrhea virus isolates and strains, antiviral IC50 against BVDV, Table 4, read-out: IC50
[15] = human respiratory syncytial virus
[16] = Human alphaherpesvirus 2, read-out: IC50 Herpes simplex virus type 2
[17] = Enterovirus B, B3, read-out: IC50 Coxsackie B3 virus

Compound CCCCN(CCCC)CCSc1nnc2c(n1)[nH]c1ccccc12 [Example 12] has a pIC50 (BVDV (strain NADL); [7]) of 8.00.
c1ccc2c(c1)[nH]c1nc(SCCN3CCCC3)nnc12 [Example 6] gave a pIC50 (BVDV (strain NADL); [7]) of 6.30.
With c1ccc2c(c1)[nH]c1nc(SCCCCOC3CCCCO3)nnc12 (stereo not shown) [Example 18] the pIC50 (BVDV (strain NADL); [7]) was < 5.52.
For CC(CN(C)C)Sc1nnc2c(n1)[nH]c1ccccc12 (stereo not shown) [Example 4], the pIC50 (BVDV (strain NADL); [7]) was 5.43.
For CCN(CC)CC(C)Sc1nnc2c(n1)[nH]c1ccccc12 (stereo not shown) [Example 2], the pIC50 (BVDV (strain NADL); [7]) was 6.52.
Work on CCCN(CCC)CCSc1nnc2c(n1)[nH]c1ccccc12 [Example 1, 3-[((2-dipropylamino)ethyl)thio]-5H-1,2,4-triazino[5,6-b]indole] yielded a pIC50 (BVDV-infected MDBK cells) of 8.46, a pIC50 (BVDV (strain NADL); read-out: IC50) of 8.22 and a pIC50 (BVDV (strain NADL); read-out: IC50 BVDV) of 8.22. The pIC50 (BVDV (strain NADL); read-out: IC50 determined in cell culture) was 8.22, the pIC50 [1] was < 4.30 and the “Concentration Of Drug Measured In Serum Post Drug Administration 30 Min.” value ([2]; 21 mg/kg) was 100 nM. For the same compound, the “Concentration Of Drug Measured In Serum Post Drug Administration 90 Min.” value ([2]; 21 mg/kg) was 70 nM, the “Concentration Of Drug Measured In Serum Post Drug Administration 30 Min.” value ([2]; 214 mg/kg) was 1100 nM and the “Concentration Of Drug Measured In Serum Post Drug Administration 90 Min.” value ([2]; 214 mg/kg) was 600 nM. For the same compound, the CC75 (normal cells) was 2 µM, the pIC50 ([3]; read-out: IC50 Herpes simplex virus type 2) was < 4.30 and the pIC50 (Influenza A virus) was < 4.30. The MTD [4] was “≧710 mg/kg”, the “#Survivors (alive at Day 7)” value [4, 8] was 5/5 and the “#Survivors (alive at Day 7)” value [4, 9] was 5/5. For the same compound, the “#Survivors (alive at Day 7)” value [4, 10] was 5/5, the “#Survivors (alive at Day 7)” value [4, 11] was 5/5 and the MTD [5] was “greater than or equal to the highest dose tested”. For the same compound, the pIC50 (Coxsackie B3 virus; read-out: IC50 Coxsackie B3 virus) was < 4.30.
For CCC1CCN(CCSc2nnc3c(n2)[nH]c2ccccc23)CC1 [Example 15], the pIC50 (BVDV (strain NADL); [7]) was < 5.52.
For Brc1ccc2[nH]c3nc(SCCN4CCCCCC4)nnc3c2c1 [Example 22], the pIC50 (BVDV (strain NADL); [7]) was 7.38.
For c1ccc2c(c1)[nH]c1nc(SCCN3CCOCC3)nnc12 [Example 11], the pIC50 (BVDV (strain NADL); [7]) was 5.92.
With c1ccc2c(c1)[nH]c1nc(SCCN3CCCCCC3)nnc12 [Example 9] the pIC50 (BVDV (strain NADL); [7]) was 7.52, the pIC50 (BVDV (strain NADL); [12]) was 7.52 and the pIC50 (BVDV (strain NADL); [13]) was 7.52. The pIC50 (BVDV (strain NADL); [14]) was 7.52, the pIC50 [1, 15] was < 4.30 and the “Concentration Of Drug Measured In Serum Post Drug Administration 30 Min.” value ([2]; Swiss Webster, 21 mg/kg) was 700 nM. The “Concentration Of Drug Measured In Serum Post Drug Administration 90 Min.” value ([2]; Swiss Webster, 21 mg/kg) was <200 nM, the “Concentration Of Drug Measured In Serum Post Drug Administration 30 Min.” value ([2]; Swiss Webster, 214 mg/kg) was 19600 nM and the “Concentration Of Drug Measured In Serum Post Drug Administration 90 Min.” value ([2]; Swiss Webster, 214 mg/kg) was 8500 nM. For the same compound, the CC75 (normal cells) was 25 µM, the pIC50 [3, 16] was < 4.30 and the pIC50 (Influenza A virus; Influenza A virus) was < 4.30. For the same compound, the MTD at 7 day [6] was 214 mg/kg, the “#Survivors (alive at Day 7)” value [4, 8] was 5/5 and the “#Survivors (alive at Day 7)” value [4, 9] was 5/5. The “#Survivors (alive at Day 7)” value [4, 11] was 0/5 and the pIC50 (Coxsackie B3 virus; [17]) was < 4.30.
c1ccc2c(c1)OCC(CSc1nnc3c(n1)[nH]c1ccccc13)O2 (stereo not shown) [Example 16] showed a pIC50 (BVDV (strain NADL); [7]) of 5.60.
Fc1ccc2[nH]c3nc(SCCN4CCCCC4)nnc3c2c1 [Example 27] showed a pIC50 (BVDV (strain NADL); [7]) of 7.68.
With Cc1ccc2[nH]c3nc(SCCN4CCCCC4)nnc3c2c1 [Example 24] the pIC50 (BVDV (strain NADL); [7]) was 7.89.
Clc1cc(CSc2nnc3c(n2)[nH]c2ccccc23)cc(Cl)n1 [Example 17] gave a pIC50 (BVDV (strain NADL); [7]) of 5.85.
CN(C)CCSc1nnc2c(n1)[nH]c1ccccc12 [Example 5] gave a pIC50 (BVDV (strain NADL); [7]) of 5.26.
Work on CCCN(CCC)CCSc1nnc2c(n1)[nH]c1ccc(N)cc12 [Example 26] yielded a pIC50 (BVDV (strain NADL); [7]) of 8.00.
Work on Fc1ccc2[nH]c3nc(SCCN4CCCCCC4)nnc3c2c1 [Example 23] yielded a pIC50 (BVDV (strain NADL); [7]) of 7.85.
With N#CC1CCN(CCSc2nnc3c(n2)[nH]c2ccccc23)CC1 [Example 14] the pIC50 (BVDV (strain NADL); [7]) was 5.74.
c1ccc2c(c1)[nH]c1nc(SCCN3CCCCC3)nnc12 [Example 7] showed a pIC50 (BVDV (strain NADL); [7]) of 7.22, a pIC50 (BVDV (strain NADL); [12]) of 7.22 and a pIC50 (BVDV (strain NADL); [13]) of 7.22. The pIC50 (BVDV (strain NADL); [14]) was 7.22, the pIC50 [1, 15] was < 4.30 and the “Concentration Of Drug Measured In Serum Post Drug Administration 30 Min.” value ([2]; Swiss Webster, 21 mg/kg) was <1500 nM. The “Concentration Of Drug Measured In Serum Post Drug Administration 90 Min.” value ([2]; Swiss Webster, 21 mg/kg) was <1500 nM, the “Concentration Of Drug Measured In Serum Post Drug Administration 30 Min.” value ([2]; Swiss Webster, 214 mg/kg) was 46000 nM and the “Concentration Of Drug Measured In Serum Post Drug Administration 90 Min.” value ([2]; Swiss Webster, 214 mg/kg) was 36200 nM. For the same compound, the CC75 (normal cells) was 12.5 µM, the pIC50 [3, 16] was < 4.30 and the pIC50 (Influenza A virus; Influenza A virus) was < 4.30. The MTD at 7 day [6] was ≥ 710 mg/kg, the MTD [4] was “greater than or equal to the highest dose tested” and the “#Survivors (alive at Day 7)” value [4, 8] was 5/5. For the same compound, the “#Survivors (alive at Day 7)” value [4, 9] was 5/5, the “#Survivors (alive at Day 7)” value [4, 10] was 5/5 and the “#Survivors (alive at Day 7)” value [4, 11] was 5/5. The pIC50 (Coxsackie B3 virus; [17]) was < 4.30.
Work on CCCN(CCC)CCSc1nnc2c(n1)[nH]c1ccccc12 [Example 19] yielded a pIC50 (BVDV (strain NADL); [7]) of 8.70.
In the case of COc1cc2oc(=O)cc(CSc3nnc4c(n3)[nH]c3ccccc34)c2cc1OC [Example 13], the pIC50 (BVDV (strain NADL); [7]) was 5.77.
Compound CC(C)N(CCSc1nnc2c(n1)[nH]c1ccccc12)C(C)C [Example 3] has a pIC50 (BVDV (strain NADL); [7]) of 5.51.
Work on Cc1ccc2[nH]c3nc(SCCN4CCCCCC4)nnc3c2c1 [Example 20] yielded a pIC50 (BVDV (strain NADL); [7]) of 8.15.
Work on c1ccc2c(c1)[nH]c1nc(SCCCN3CCCCC3)nnc12 [Example 8] yielded a pIC50 (BVDV (strain NADL); [7]) of 5.36.
COc1ccc2[nH]c3nc(SCCN4CCOCC4)nnc3c2c1 [Example 25] gave a pIC50 (BVDV (strain NADL); [7]) of 5.70.
In the case of c1ccc2c(c1)[nH]c1nc(SCc3ccncc3)nnc12 [Example 10], the pIC50 (BVDV (strain NADL); [7]) was 5.40.
For Brc1ccc2[nH]c3nc(SCCN4CCCCC4)nnc3c2c1 [Example 21], the pIC50 (BVDV (strain NADL); [7]) was 7.44.

— US20030176431A1 (priority 1997, published 2003)
